Measured values: patent US11795169B2, “MAP4K4 inhibitors” (IMPERIAL COLLEGE INNOVATIONS LIMITED, priority 2017, dated 2023)
Read-outs that look alike come from different tables or passages of the source.

How the values were obtained:
[1] = molecular target: human MAP4K4 kinase domain (Homo sapiens (Human), UniProt O95819); test: MAP4K4 kinase activity, CisBio HTRF Transcreener ADP assay; type: biochemical
Description: (§1) Compounds of the present invention were screened for their inhibitory activity against MAP4K4, versus selected off-target hits found with early members of this chemical series. MAP4K4 kinase activity was monitored using the CisBio HTRF Transcreener ADP assay, acompetitive immunoassay with a reproducible Z′>0.6. In the detection step, endogenous ADP and d2-labeled ADP compete for binding an anti-ADP monoclonal antibody labelled with Eu^3+ cryptate. A ratiometric fluorescent read-out is used at 665 and 620 nm. […] Assays were run in Greiner low volume plates with a final reaction volume of 10 μl. The MAP4K4 inhibition data are provided in Table 33 below for selected compounds of the present invention. The data has been categorised based on the IC50 value of the compound as “A”, “B” or “C”.

MINK1/MAP4K6 = MINK1/MAP4K6 (Homo sapiens (Human), UniProt Q8N4C8); test: Kinase selectivity panel: MINK1/MAP4K6; type: biochemical
Description: as §1
(§2) The data in Table 34 also provides the fold selectivity of the two compounds in favour of MAP4K4 over the tested kinase. The fold selectivity is indicated in parenthesis.

TNIK/MAP4K7 = TNIK/MAP4K7 (Homo sapiens (Human), UniProt Q9UKE5); test: Kinase selectivity panel: TNIK/MAP4K7; type: biochemical
Description: as §1, §2

GCK/MAP4K2 = GCK/MAP4K2 (Homo sapiens (Human), UniProt Q12851); test: Kinase selectivity panel: GCK/MAP4K2; type: biochemical
Description: as §1, §2

GLK/MAP4K3 = GLK/MAP4K3 (Homo sapiens (Human), UniProt Q8IVH8); test: Kinase selectivity panel: GLK/MAP4K3; type: biochemical
Description: as §1, §2

KHS/MAP4K5 = KHS/MAP4K5 (Homo sapiens (Human), UniProt Q9Y4K4); test: Kinase selectivity panel: KHS/MAP4K5; type: biochemical
Description: as §1, §2

ABL1 = ABL1 (Homo sapiens (Human), UniProt P00519); test: Kinase selectivity panel: ABL1; type: biochemical
Description: as §1, §2

Aurora B = Aurora B (Homo sapiens (Human), UniProt Q96GD4); test: Kinase selectivity panel: Aurora B; type: biochemical
Description: as §1, §2

FLT3 = FLT3 (Homo sapiens (Human), UniProt P36888); test: Kinase selectivity panel: FLT3; type: biochemical
Description: as §1, §2

GSK3β = GSK3β (Homo sapiens (Human), UniProt P49841); test: Kinase selectivity panel: GSK3β; type: biochemical
Description: as §1, §2

MLK1/MAP3K9 = MLK1/MAP3K9 (Homo sapiens (Human), UniProt P80192); test: Kinase selectivity panel: MLK1/MAP3K9; type: biochemical
Description: as §1, §2

MLK3/MAP3K11 = MLK3/MAP3K11 (Homo sapiens (Human), UniProt Q16584); test: Kinase selectivity panel: MLK3/MAP3K11; type: biochemical
Description: as §1, §2

NUAK = test: Kinase selectivity panel: NUAK; type: biochemical
Procedure: (§3) In the detection step, endogenous ADP and d2-labeled ADP compete for binding an anti-ADP monoclonal antibody labelled with Eu^3+ cryptate. […] Assays were run in Greiner low volume plates with a final reaction volume of 10 μl.
(§4) The fold selectivity is indicated in parenthesis.

VEGFR = test: Kinase selectivity panel: VEGFR; type: biochemical
Procedure: as §3, §4

[2] = tested on: CorV.4U cardiomyocytes (hiPSC-CMs); test: Protection of CorV.4U cardiomyocytes from H2O2 or menadione (luminescent cell viability assay, human cardiac troponin assay); type: cell-based
Description: To substantiate the hypothesis that pharmacological inhibition of MAP4K4 would confer resistance to cell death in human cardiomyocytes, cytoprotection was next assessed using hiPSC-CMs.

H9c2 cardiomyocytes = test: Protection of H9c2 cardiomyocytes; type: cell-based
CorV.4U hiPSC-CMs = test: Mitochondrial function in CorV.4U hiPSC-CMs after acute oxidative stress (menadione); type: cell-based, human; conditions: 10 μM compound, 15 μM menadione for 2 h
Procedure: Key aspects of mitochondrial function were monitored in CorV.4U hiPSC-CMs after acute oxidative stress (15 μM menadione for 2 h), with or without Ex-58 (FIG. 8A).

hiPSC-CMs = test: Calcium cycling in hiPSC-CMs (Fura-2) under menadione; type: cell-based, human
Procedure: Calcium cycling, a hallmark of the cardiac phenotype, likewise is susceptible to redox- and phosphorylation-dependent abnormalities. To determine whether MAP4K4 inhibition might preserve calcium homeostasis, hiPSC-CMs were assessed using the intracellular calcium indicator, Fura-2 (FIG. 8B). […] At 50 μM menadione, spontaneous calcium oscillations persisted in only 8 of 24 cultures (33.3%), versus 21 of 24 receiving 10 μM Ex-58 (87.5%; P<0.001).

[3] = tested on: mice undergoing experimental myocardial infarction; test: Experimental myocardial infarction in mice (infarct size, TUNEL staining); type: in vivo; conditions: for reduction in infarct size as a proportion of the area at ischemic risk: 50 mg kg−1 twice by gavage
Procedure: To test if target validation and compound development in hiPSC-CMs might predict success in a whole-animal context, mice undergoing experimental myocardial infarction were treated with Ex-58 or the vehicle control (FIG. 9). […] Treatment was begun either 20 min prior to ischemia (FIG. 9D), or 1 h after reperfusion injury (FIG. 9E, F), the latter having greater relevance to potential clinical benefits.

[4] = Plasma protein binding (PPB); type: in vitro ADME; conditions: plasma
[5] = Resistance to degradation in hepatocyte microsomes (Heps); type: in vitro ADME
Cyp = Cyp Inhibition; type: in vitro ADME
[6] = mouse, in vivo; for AUCinf: po, 50 mg/kg
[7] = Pharmacokinetics in mice (IV and oral)
[8] = tested on: iCell cardiomyocytes (hiPSC-CMs); test: Human cardiac muscle cell death in iCell cardiomyocytes (DRAQ7 uptake); type: cell-based; conditions: 1.25 μM, lowest concentration tested
Description: First, the expression of cardiomyocyte-specific markers and of MAP4K4 protein was validated (FIG. 5A, B). Two of three shRNAs directed against human MAP4K4 reduced expression >60%, with no extraneous effect on M/NK/MAP4K6 and TN/K/MAP4K7, the most closely related genes (FIG. 5C). Cell death was quantified by high-content analysis (FIG. 5D) as the loss of membrane integrity (DRAQ7 uptake) in successfully transduced (GFP^+) hiPSC-CMs (Myh6-RFP^+). Each of the two potent shRNAs conferred protection against H2O2: myocyte loss was reduced up to 50% (FIG. 5E).
To substantiate the hypothesis that pharmacological inhibition of MAP4K4 would confer resistance to cell death in human cardiomyocytes, cytoprotection was next assessed using hiPSC-CMs. […] Human cardiac muscle cell protection was substantiated in a second, independent line, CorV.4U cardiomyocytes, which are more highly enriched for ventricular myocytes.

[9] = ATP at Km (10 μM), 0.5 nM kinase domain, 2 h, read-out: MAP4K4

Chain of Aurora B (Q96GD4 whole entry): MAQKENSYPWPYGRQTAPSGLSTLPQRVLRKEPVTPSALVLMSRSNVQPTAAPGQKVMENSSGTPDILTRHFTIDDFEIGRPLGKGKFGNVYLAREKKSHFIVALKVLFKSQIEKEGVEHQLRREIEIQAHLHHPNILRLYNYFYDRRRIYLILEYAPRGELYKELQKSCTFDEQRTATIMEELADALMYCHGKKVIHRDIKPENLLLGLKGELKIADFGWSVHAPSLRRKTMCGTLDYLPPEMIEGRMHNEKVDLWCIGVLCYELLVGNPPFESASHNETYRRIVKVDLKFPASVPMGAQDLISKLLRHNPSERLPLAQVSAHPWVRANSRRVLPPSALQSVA
Chain of GLK/MAP4K3 (Q8IVH8 whole entry): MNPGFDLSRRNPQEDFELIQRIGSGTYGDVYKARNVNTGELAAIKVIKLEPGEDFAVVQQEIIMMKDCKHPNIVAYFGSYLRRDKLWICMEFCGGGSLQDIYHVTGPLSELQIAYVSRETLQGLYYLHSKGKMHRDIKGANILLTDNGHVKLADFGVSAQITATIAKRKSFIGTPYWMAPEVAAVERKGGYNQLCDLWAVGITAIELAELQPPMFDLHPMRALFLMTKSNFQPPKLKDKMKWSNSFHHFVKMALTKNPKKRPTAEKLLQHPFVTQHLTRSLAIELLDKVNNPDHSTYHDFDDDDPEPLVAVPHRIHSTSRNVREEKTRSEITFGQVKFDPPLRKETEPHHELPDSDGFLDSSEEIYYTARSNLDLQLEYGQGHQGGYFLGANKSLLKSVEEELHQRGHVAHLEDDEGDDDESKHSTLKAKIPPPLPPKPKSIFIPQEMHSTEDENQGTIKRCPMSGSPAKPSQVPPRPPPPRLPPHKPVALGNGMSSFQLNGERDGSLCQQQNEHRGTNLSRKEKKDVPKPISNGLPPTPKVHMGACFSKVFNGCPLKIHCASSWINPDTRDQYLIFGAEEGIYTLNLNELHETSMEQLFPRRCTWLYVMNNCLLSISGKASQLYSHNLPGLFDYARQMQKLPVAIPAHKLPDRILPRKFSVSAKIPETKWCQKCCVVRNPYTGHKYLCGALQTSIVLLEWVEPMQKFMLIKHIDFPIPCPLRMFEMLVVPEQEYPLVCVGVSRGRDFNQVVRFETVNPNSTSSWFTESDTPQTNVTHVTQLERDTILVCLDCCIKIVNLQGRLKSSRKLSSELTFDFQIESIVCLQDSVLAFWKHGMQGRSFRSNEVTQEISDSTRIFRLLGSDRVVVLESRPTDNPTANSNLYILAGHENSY
Chain of FLT3 (P36888 27-993, species assumed): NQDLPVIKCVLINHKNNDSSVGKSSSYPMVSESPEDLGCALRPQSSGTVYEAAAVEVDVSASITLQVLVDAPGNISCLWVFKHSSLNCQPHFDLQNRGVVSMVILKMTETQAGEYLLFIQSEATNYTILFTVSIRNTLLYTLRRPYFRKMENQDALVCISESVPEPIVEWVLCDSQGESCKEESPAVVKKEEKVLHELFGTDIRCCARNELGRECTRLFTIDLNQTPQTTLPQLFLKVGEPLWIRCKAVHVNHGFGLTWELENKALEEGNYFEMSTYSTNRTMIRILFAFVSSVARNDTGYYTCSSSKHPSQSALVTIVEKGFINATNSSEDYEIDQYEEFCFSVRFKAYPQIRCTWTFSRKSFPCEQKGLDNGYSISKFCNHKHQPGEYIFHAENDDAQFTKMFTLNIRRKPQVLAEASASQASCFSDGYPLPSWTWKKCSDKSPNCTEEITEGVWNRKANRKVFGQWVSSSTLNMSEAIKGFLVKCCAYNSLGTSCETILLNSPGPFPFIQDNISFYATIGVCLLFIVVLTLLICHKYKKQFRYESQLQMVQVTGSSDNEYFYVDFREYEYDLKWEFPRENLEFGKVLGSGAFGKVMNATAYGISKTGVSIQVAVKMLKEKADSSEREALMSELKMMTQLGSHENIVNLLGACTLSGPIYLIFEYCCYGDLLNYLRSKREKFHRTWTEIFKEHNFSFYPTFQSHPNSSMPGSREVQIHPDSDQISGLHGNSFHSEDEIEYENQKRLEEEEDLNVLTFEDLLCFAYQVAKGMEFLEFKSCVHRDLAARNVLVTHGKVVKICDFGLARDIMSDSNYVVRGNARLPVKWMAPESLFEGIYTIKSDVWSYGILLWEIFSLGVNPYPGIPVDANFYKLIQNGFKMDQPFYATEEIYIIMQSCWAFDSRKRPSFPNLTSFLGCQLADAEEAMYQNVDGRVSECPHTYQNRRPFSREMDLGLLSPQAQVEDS
Chain of human MAP4K4 kinase domain (O95819 25-289): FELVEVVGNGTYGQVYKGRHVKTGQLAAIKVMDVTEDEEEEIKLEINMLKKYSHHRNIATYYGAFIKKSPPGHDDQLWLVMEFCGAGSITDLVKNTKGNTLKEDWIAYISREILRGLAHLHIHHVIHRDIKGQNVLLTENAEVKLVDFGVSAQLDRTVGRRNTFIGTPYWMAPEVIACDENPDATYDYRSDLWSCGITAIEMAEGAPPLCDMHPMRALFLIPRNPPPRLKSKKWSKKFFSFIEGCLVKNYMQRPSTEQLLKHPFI
Chain of MLK3/MAP3K11 (Q16584 whole entry): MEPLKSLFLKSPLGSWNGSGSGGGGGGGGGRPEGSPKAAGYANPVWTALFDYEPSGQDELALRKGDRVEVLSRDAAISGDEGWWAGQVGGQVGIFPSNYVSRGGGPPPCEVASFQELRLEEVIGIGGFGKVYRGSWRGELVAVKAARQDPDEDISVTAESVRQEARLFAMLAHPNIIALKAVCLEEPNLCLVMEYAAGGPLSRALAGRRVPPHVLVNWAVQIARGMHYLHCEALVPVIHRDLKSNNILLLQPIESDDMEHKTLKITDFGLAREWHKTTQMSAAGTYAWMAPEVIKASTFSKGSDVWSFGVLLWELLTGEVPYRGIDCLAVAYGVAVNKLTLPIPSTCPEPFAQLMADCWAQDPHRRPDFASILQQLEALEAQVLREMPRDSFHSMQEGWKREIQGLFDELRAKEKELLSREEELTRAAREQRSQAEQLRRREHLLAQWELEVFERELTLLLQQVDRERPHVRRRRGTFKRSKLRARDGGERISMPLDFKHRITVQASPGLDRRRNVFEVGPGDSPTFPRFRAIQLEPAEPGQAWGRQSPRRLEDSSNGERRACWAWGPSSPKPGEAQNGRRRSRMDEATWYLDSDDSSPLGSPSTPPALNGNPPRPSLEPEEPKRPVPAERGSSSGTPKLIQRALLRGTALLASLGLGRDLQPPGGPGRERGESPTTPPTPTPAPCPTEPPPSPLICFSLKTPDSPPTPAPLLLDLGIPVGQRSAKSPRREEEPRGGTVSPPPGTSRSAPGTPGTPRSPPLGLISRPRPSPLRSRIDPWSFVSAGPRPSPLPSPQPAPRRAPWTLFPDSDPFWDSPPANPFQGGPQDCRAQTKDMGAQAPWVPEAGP
Chain of GCK/MAP4K2 (Q12851 whole entry): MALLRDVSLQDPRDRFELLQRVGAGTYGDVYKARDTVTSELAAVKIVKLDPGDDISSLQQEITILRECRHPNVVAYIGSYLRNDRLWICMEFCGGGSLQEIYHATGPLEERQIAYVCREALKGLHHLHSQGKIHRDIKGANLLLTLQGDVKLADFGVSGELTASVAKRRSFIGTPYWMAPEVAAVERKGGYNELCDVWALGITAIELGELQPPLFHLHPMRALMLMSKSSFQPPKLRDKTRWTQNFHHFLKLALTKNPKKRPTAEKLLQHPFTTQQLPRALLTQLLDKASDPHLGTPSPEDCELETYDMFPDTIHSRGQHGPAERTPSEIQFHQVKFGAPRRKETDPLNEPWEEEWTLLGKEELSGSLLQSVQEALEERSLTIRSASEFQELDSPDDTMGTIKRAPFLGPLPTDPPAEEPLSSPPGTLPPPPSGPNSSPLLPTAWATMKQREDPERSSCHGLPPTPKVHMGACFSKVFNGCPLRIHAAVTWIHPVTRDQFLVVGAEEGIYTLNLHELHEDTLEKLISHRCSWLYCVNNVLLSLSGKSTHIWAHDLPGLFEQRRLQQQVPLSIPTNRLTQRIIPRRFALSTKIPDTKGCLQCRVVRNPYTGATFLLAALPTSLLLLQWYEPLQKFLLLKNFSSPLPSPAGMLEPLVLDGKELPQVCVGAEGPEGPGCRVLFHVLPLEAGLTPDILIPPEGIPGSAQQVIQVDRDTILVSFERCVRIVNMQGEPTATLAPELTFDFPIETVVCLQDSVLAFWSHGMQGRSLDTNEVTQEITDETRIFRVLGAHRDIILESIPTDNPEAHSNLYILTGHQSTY
Chain of GSK3β (P49841 whole entry, species assumed): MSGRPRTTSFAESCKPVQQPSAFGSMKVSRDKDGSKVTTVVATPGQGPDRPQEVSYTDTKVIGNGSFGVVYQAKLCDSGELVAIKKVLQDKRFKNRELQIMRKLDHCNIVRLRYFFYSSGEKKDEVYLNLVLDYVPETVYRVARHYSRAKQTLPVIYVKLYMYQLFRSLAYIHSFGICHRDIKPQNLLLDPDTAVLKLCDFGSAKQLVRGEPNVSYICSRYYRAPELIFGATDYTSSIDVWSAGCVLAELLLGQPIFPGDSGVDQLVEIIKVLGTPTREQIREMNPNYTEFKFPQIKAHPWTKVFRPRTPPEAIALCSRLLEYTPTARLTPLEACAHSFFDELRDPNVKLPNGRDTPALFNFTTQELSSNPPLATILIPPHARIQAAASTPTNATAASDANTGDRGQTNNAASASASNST

## COCCOc1ccc(-c2cn(-c3ccccc3)c3nc[nH]c(=O)c23)cc1 [Ex-58, 5-[4-(2-Methoxy-ethoxy)-phenyl]-7-phenyl-3,7-dihydro-pyrrolo[2,3-d]pyrimidin-4-one]
[1]
  greater potency than F1386-0303: 10 fold
  pIC50 MAP4K4: 8.55
[1]; [9]
  IC50: ≤ 100 nM
[1]; compared to F1386-303, 13 other protein kinases
  selectivity for MAP4K4 (in words): highly selective
[1]; read-out: MAP4K4, IC50
  IC50: 3 nM
MINK1/MAP4K6
  pIC50 MINK1/MAP4K6: 8.18
TNIK/MAP4K7
  pIC50 TNIK/MAP4K7: 7.96
GCK/MAP4K2
  fold selectivity for MAP4K4 over GCK/MAP4K2: (112) fold
  pIC50 GCK/MAP4K2: 6.50
GLK/MAP4K3
  fold selectivity for MAP4K4 over GLK/MAP4K3: (3981) fold
  pIC50 GLK/MAP4K3: 4.95
KHS/MAP4K5
  fold selectivity for MAP4K4 over KHS/MAP4K5: (153) fold
  pIC50 KHS/MAP4K5: 6.36
ABL1
  fold selectivity for MAP4K4 over ABL1: (560) fold
  pIC50 ABL1: 5.80
Aurora B
  fold selectivity for MAP4K4 over Aurora B: (560) fold
  pIC50 Aurora B: 5.49
FLT3
  fold selectivity for MAP4K4 over FLT3: (1148) fold
  pIC50 FLT3: 5.31
GSK3β
  fold selectivity for MAP4K4 over GSK3β: (7762) fold
  pIC50 GSK3β: 4.66
MLK1/MAP3K9
  fold selectivity for MAP4K4 over MLK1/MAP3K9: (23) fold
  pIC50 MLK1/MAP3K9: 7.19
MLK3/MAP3K11
  fold selectivity for MAP4K4 over MLK3/MAP3K11: (36) fold
  pIC50 MLK3/MAP3K11: 6.99
NUAK
  fold selectivity for MAP4K4 over NUAK: (47) fold
  pIC50 NUAK: 6.88
VEGFR
  fold selectivity for MAP4K4 over VEGFR: (675) fold
  pIC50 VEGFR: 5.72
[2]; CorV.4U cells, H2O2 and menadione, both viability assays
  protection of human cardiomyocytes (in words): Protection of human cardiomyocytes was substantiated
[2]; H2O2 as death trigger, relative to Ex-58
  Protection in human iPSC-derived ventricular cardiomyocytes, H202, efficacy relative to Ex-58: (1)
[2]; Homo sapiens, Cardiomyocyte, H2O2 as death trigger, read-out: Protection in human iPSC-derived ventricular cardiomyocytes, EC50 H202
  EC50: 403 nM
H9c2 cardiomyocytes; H9c2 cardiomyocytes, relative to Ex-58
  Protection in H9c2 cardiomyocytes, efficacy relative to Ex-58: (1)
H9c2 cardiomyocytes; Rattus norvegicus, H9c2
  EC50: 350 nM
CorV.4U hiPSC-CMs
  extracellular acidification rate (glycolytic function): largely rescued
hiPSC-CMs; 10 μM compound, 50 μM menadione, 21 of 24 cultures
  cultures with persisting spontaneous calcium oscillations: 87.5%
hiPSC-CMs; hiPSC-CMs, mitochondrial function and calcium cycling
  adverse effect on functional parameters: no adverse effect
[3]; begun 20 min prior to ischemia
  reduction in infarct size as a proportion of the area at ischemic risk: more than 50%
[3]; begun 1 h after reperfusion injury
  reduction in infarct size as a proportion of the area at ischemic risk: > 60%
[3]; mice, experimental myocardial infarction
  In vivo efficacy (infarct size/area at risk), reduction: 65% reduction
[3]; post-injury study
  suppression of cardiomyocyte apoptosis (TUNEL) in the jeopardized adjacent myocardium: 52%
  suppression of cardiomyocyte apoptosis (TUNEL) within the infarct: 39%
[4]; human, read-out: Human PPB % (converted)
  fraction unbound: 0.01
[4]; mouse, read-out: Mouse PPB % (converted)
  fraction unbound: 0.02
[5]; human
  Human Heps: ≤10
[5]; mouse
  Mouse Heps: 85
[5]; pig
  Pig Heps: 8
[5]; rat
  Rat Heps: 10
Cyp
  Cyp Inhibition: >10 µM
[6]
  AUCinf: 63733
[7]; 50 mg kg-1 oral dose, versus F1386-0303
  improvement of free plasma concentration over the earlier compound: > 80 fold
[7]; mouse, plasma, po, 50 mg kg-1
  concentration at 1 h: 334 nM
  concentration at 10 h: 8 nM

## O=C1NCCN1c1ccc(-c2cn(-c3ccccc3)c3nc[nH]c(=O)c23)cc1 [Ex-61]
[1]; [9]
  IC50: ≤ 100 nM
[1]; read-out: pIC50 MAP4K4 (converted)
  IC50: 1.58 nM
MINK1/MAP4K6; read-out: pIC50 MINK1/MAP4K6 (converted)
  IC50: 7.94 nM
TNIK/MAP4K7; read-out: pIC50 TNIK/MAP4K7 (converted)
  IC50: 5.01 nM
GCK/MAP4K2
  fold selectivity for MAP4K4 over GCK/MAP4K2: (316) fold
GCK/MAP4K2; read-out: pIC50 GCK/MAP4K2 (converted)
  IC50: 316 nM
GLK/MAP4K3
  fold selectivity for MAP4K4 over GLK/MAP4K3: (31622) fold
GLK/MAP4K3; read-out: pIC50 GLK/MAP4K3 (converted)
  IC50: 31600 nM
KHS/MAP4K5
  fold selectivity for MAP4K4 over KHS/MAP4K5: (316) fold
KHS/MAP4K5; read-out: pIC50 KHS/MAP4K5 (converted)
  IC50: 1000 nM
ABL1
  fold selectivity for MAP4K4 over ABL1: (794) fold
ABL1; read-out: pIC50 ABL1 (converted)
  IC50: 794 nM
Aurora B
  fold selectivity for MAP4K4 over Aurora B: (31622) fold
Aurora B; read-out: pIC50 Aurora B (converted)
  IC50: 31600 nM
FLT3
  fold selectivity for MAP4K4 over FLT3: (31622) fold
FLT3; read-out: pIC50 FLT3 (converted)
  IC50: 31600 nM
GSK3β
  fold selectivity for MAP4K4 over GSK3β: (31622) fold
GSK3β; read-out: pIC50 GSK3β (converted)
  IC50: 31600 nM
MLK1/MAP3K9
  fold selectivity for MAP4K4 over MLK1/MAP3K9: (63) fold
MLK1/MAP3K9; read-out: pIC50 MLK1/MAP3K9 (converted)
  IC50: 63.1 nM
MLK3/MAP3K11
  fold selectivity for MAP4K4 over MLK3/MAP3K11: (63) fold
MLK3/MAP3K11; read-out: pIC50 MLK3/MAP3K11 (converted)
  IC50: 63.1 nM
NUAK
  fold selectivity for MAP4K4 over NUAK: (63) fold
  pIC50 NUAK: 7.2
VEGFR
  fold selectivity for MAP4K4 over VEGFR: (501) fold
  pIC50 VEGFR: 6.3

## Oc1ncnc2c1c(-c1ccccc1)cn2-c1ccccc1 [F1386-0303, 5,7-diphenyl-7H-pyrrolo[2,3-d]pyrimidin-4-ol, reference compound]
[1]
  pIC50 MAP4K4: 7.46
[1]; read-out: IC50 (MAP4K4)
  IC50: 34 nM
ABL1
  pIC50 ABL1: 4.52
Aurora B
  pIC50 Aurora B: 4.88
FLT3
  pIC50 FLT3: 5.66
GSK3β
  pIC50 GSK3β: 4.57
[8]
  reduction of human cardiac muscle cell death: 50%
[2]; 10 μM, luminescent cell viability assay, human cardiac troponin assay
  protection from H2O2 or menadione: virtually complete
[6]
  clearance and oral exposure in mice (in words): rapidly cleared and accumulates only to low levels
  AUCinf: 2162
